Patent US8063022B1, “Methods for preventing formation of inhibitory antibodies in the setting of gene therapy” (priority 1999, dated 2011)
Like-named read-outs stand apart in the source and are kept apart here.

Columns and labels:
[1] = system: Hemophilia B knockout mice; experiment: Western blot for antibody to murine F.IX in hemophilic mice injected with AAV-mF.IX; format: in vivo, mouse; conditions: up to five months of observation
Method: (§1) Hemophilia B knockout mice were injected intramuscularly with AAV mF.IX (1×10^11) at day 0, without or with immunomodulation therapy. The mice were bled at monthly time points in citrate. The assays which were performed included a clotting based-apTT (measure of correction of hemostatic defect) assay and Bethesda titer (1 BU defined as 50% residual FIX in a 2 hour 50:50 mix). In addition, antibody assays, Western blot analysis and ELISA assays were performed. The immunomodulatory strategies used to address formation of antibodies to the transgene product were as follows: […]

[2] = system: Hemophilia B knockout mice; format: in vivo, mouse; conditions: for Bethesda titer of AAV-F.IX treated mice: values of individual mice; for correction of the aPTT (in words): hemophilia B mice injected with AAV-mF.IX, with or without immunomodulation
Method: A cohort of six mice were injected intramuscularly with an adeno-associated virus (AAV) vector encoding the murine F.IX transgene (total dose 1×10^11 vector genomes/mouse). Mice were bled at monthly intervals via tail vein transection, and clotting times of plasma were measured by aPTT assay. […] Two other cohorts of mice received immunomodulation around the time of vector administration in an effort to suppress inhibitor formation. One cohort (n=4) received anti-CD40L antibody at a total dose of 0.4 mg per mouse given in four divided doses (0.1 mg at days -3, 0, 3, 6) while the other cohort received cyclophosphamide (CYP, n=4) at doses of 50 mg/kg per mouse biweekly at four time points.
as §1

For `O=P1(N(CCCl)CCCl)NCCCO1` (centres unmarked) [CYP, cyclophosphamide], which “antibody to murine F.IX on Western blot (in words)” value [1] is on record?
The value was “did not develop antibodies”.

And the “Bethesda titer of AAV-F.IX treated mice” value ([2]; 1 month after vector)?
The value was 0/0/0.

And the “Bethesda titer of AAV-F.IX treated mice” value ([2]; 2 months after vector)?
The value was 0/0/0.

And the “period over which aPTT correction was maintained” value ([2]; after vector injection)?
The value was “greater than ten months”.

What about the aPTT ([2]; all mice at one month after vector, normal 22-39 s) of the same compound?
The aPTT was 28.9 to 30.9 s.

And the “animals with no evidence of inhibitor antibody formation” value ([2]; four doses at two week intervals, at least five months after vector)?
Its value is 3/3.

What about the “correction of the aPTT (in words)” value [2] of the same compound?
Its value is “nearly complete correction”.

And the “correction of the aPTT (in words)” value ([2]; listed as cyclophosphamide)?
The value was “sustained correction of the aPTT”.
